Results from US20110207807A1, “NEW USE FOR HOMOISOFLAVONE OR A SALT THEREOF” (Catholic University Industry Academy Cooperation Foundation, priority 2008, published 2011).

Legend:
[1] = tested on: COX-2; assay: COX-2 expression induced by UV in human keratinocytes (Western blot); assay type: cell-based; settings: HaCaT cells, 1 μg/mL, UV 100 J/m^2, 16 hours, vs UV only (FIG. 2a)
Description: In order to investigate the effect of homoisoflavanone on COX-2 expression induced by UV in human keratinocytes, HaCaT cells (5×10^5 cells) were inoculated on a 60-mm culture dish and cultured for 24 hours in DMEM containing 10% FBS.
Then, the cells were starved by culturing for 24 hours in DMEM containing 1% FBS. Then, after treating with homoisoflavanone at 1 μg/mL for 1 hour, the cells were washed 3 times with PBS and irradiated with UV at 100 J/m^2 to induce COX-2 expression. Immediately after the UV radiation, the cells were washed again with PBS and further cultured for 16 hours in DMEM containing 1% FBS, while treating with homoisoflavanone at the same concentration.
Thereafter, Western blotting was performed as follows in order to measure the degree of COX-2 expression in the cultured cells. The cells of each group were lysed using RIPA buffer containing 2 mM EDTA, 137 mM NaCl, 20 mM Tris-HCl (pH, 8.0), 1 mM sodium vanadate, 10 mM NaF, 1 mM phenylmethanesulfonyl fluoride (PMSF), 1% Triton X-100, 10% glycerol and a protease inhibitor cocktail, and subjected to SDS-PAGE electrophoresis on 10% acrylamide gel to separate proteins, which were then transferred to a nylon membrane and separated using goat anti-COX-2 antibody (SantaCruz, USA) and anti-goat IgG-horse radish peroxidase (HRP) conjugation antibody (1:10000, Zymed) as secondary antibody. […]

[2] = tested on: cPLA2; assay: cPLA2 phosphorylation induced by PMA and A23187 in HMC-1 (Western blot); assay type: cell-based, human; settings: HMC-1, 2 μg/mL, 50 nM PMA + 1 μM A23187, 4 hours (FIG. 7c)
Description: 1×10^6 HMC-1 cells were inoculated on a 100-mm culture dish and cultured in IMDM containing 10% FBS for 48 hours. […] Then, Western blotting was carried out in the same manner as in Example 2-1 except for using rabbit anti-p-cytosolic phospholipase A2 (cPLA2) antibody, rabbit anti-cPLA2 antibody, rabbit anti-ERK antibody and rabbit anti-p-ERK antibody (Cell Signaling) and using anti-rabbit IgG-HRP conjugation antibody (Zymed) as secondary antibody.

[3] = tested on: 5-LOX; assay: 5-LOX translocation to nuclear membrane induced by PMA and A23187 in HMC-1 (Western blot); assay type: cell-based, human; settings: HMC-1, 2 μg/mL, 50 nM PMA + 1 μM A23187, 5 hours (FIG. 7b)
Description: In order to investigate the effect of homoisoflavanone on the migration of 5-LOX from the cytoplasm toward the nuclear membrane induced by phorbol 12-myristate 13-acetate and A23187 in human mast cells, 1×10^6 HMC-1 cells were inoculated on a 100-mm culture dish and cultured in IMDM containing 10% FBS for 48 hours. Then, after treating with homoisoflavanone at 2 μg/mL, the cells were treated with 50 nM phorbol 12-myristate 13-acetate and 1 μM A23187 to induce migration of 5-LOX to the nuclear membrane, and then further cultured for 5 hours.
Then, in order to measure the migration of 5-LOX to the nuclear membrane, nuclear membrane proteins were isolated first. The cells of each test group were lysed with a buffer containing 10 mM HEPES/KOH, 0.1 mM EDTA, 10% NP-40, 10 mM KCl, 1 mM DTT, 0.5 mM PMSF and a protease inhibitor cocktail on ice for 10 minutes. After centrifugation, the supernatant (cytoplasmic proteins) was separated from the pellets (nuclear membrane proteins). The cytoplasmic proteins were kept at −80° C. and the pellets were lysed with a buffer containing 10 mM HEPES/KOH, 0.1 mM EDTA, 10% NP-40, 300 mM NaCl, 1 mM DTT, 0.5 mM PMSF and a protease inhibitor cocktail by shaking on ice for 30 minutes. Then, after centrifugation, the supernatant (nuclear proteins) was separated. […]

[4] = tested on: HMC-1 cells; assay: Degranulation induced by PMA and A23187 in HMC-1 (transmission electron microscopy); assay type: cell-based, human; settings: HMC-1, 2 μg/mL, 50 nM PMA + 1 μM A23187, 6 hours (FIG. 8a)
Description: In order to investigate the effect of homoisoflavanone on COX-2 expression induced by phorbol 12-myristate 13-acetate and A23187 in HMC-1, 1×10^5 HMC-1 cells were inoculated on a 6-well plate and cultured in IMDM containing 10% FBS for 48 hours. Then, after treating with homoisoflavanone at 2 μg/mL for 1 hour, the cells were treated with 50 nM phorbol 12-myristate 13-acetate and 1 μM A23187 to induce COX-2 expression, and then further cultured for 6 hours. Then, the cells were fixed with 2.5% glutaraldehyde and frozen with liquid nitrogen. The cells were detached from the plate by applying heat, sliced into […], attached on grids, and observed with a transmission electron microscope (TEM).

[5] = tested on: IL-8; assay: UV-induced IL-8 mRNA expression in HaCaT cells (real-time PCR); assay type: cell-based, human; settings: 1 μg/mL, UV 100 J/m^2, compared to control group (FIG. 3)
Description: 1×10^6 HaCaT cells were inoculated on a 100-mm culture dish and cultured in DMEM containing 10% FBS for 24 hour. Then, the cells were starved by culturing for 24 hours in DMEM containing 1% FBS. Then, after treating with homoisoflavanone at 1 μg/mL for 1 hour, the cells were washed 3 times with PBS and irradiated with UV at 100 J/m^2 to induce increase of cytokines. Immediately after the UV radiation, the cells were washed again with PBS and further cultured for 2 or 5 hours in DMEM containing 1% FBS which had been treated with homoisoflavanone at the same concentration.
After extracting RNA from the cells of each test group using TRIzol (Invitrogen, USA), cDNA was prepared by carrying out PCR (PTC-225 Peltier thermal cycler, MJ Research, USA). Then, the mRNA expression of IL-6, IL-8 and TNF-α was measured through real-time PCR (Roter Gene 6000 series, Corbett Research, Australia) using the cDNA as template and using commercially available IL-6, IL-8 and TNF-α primers. The expression level of the pro-inflammatory cytokines was compared relative to the non-treated group.

## COc1ccc(CC2COc3cc(O)cc(O)c3C2=O)cc1O (centres unmarked) [homoisoflavanone]
[1]
  COX-2 expression induced by UV: decreased
[2]
  cPLA2 phosphorylation: inhibited
[3]
  migration of 5-LOX toward the nuclear membrane: inhibited
[4]
  release of intracellular substances (degranulation, TEM): inhibited
[5]
  expression of IL-8 (mRNA) induced by UV: decreased expression
